What was measured:
MRPA0108 biofilms = assay: Confocal laser scanning microscopy of biofilms (LIVE/DEAD staining); assay type: cell-based, Pseudomonas aeruginosa; conditions: erythromycin positive control, concentration not given; 24 h; control 8.7%
Procedure: Biofilms of MRPA0108 were visualized by confocal microscopy. Mid-log growth-phase bacteria were diluted to 1 × 10^7 CFU/ml. […] LB liquid medium and erythromycin were used as negative and positive controls, respectively. After incubation, the supernatant was removed, and the slides were washed and stained in a dark environment for 30 min using a LIVE/DEAD BacLight^TM Bacterial Viability Kit (Invitrogen, Life Technologies, Shanghai, China). The slides were washed three times and imaged with a confocal laser scanning microscope (LSM 710, Carl Zeiss, Germany) with excitation/emission wavelengths of 480/500 and 490/635 nm for SYTO9 and propidium iodide (PI), respectively. SYTO9 was used to indicate live bacteria, and PI was used to mark dead bacteria.

[1] = test system: MRPA0108 swarming motility; assay: Swarming motility assay; assay type: cell-based, Pseudomonas aeruginosa; conditions: erythromycin positive control, concentration not given; 24 h, 37°C; vs control
Procedure: The swarming motility of MRPA0108 was assessed as described by [O’May and Tufenkji (2011)], with slight modifications. Briefly, swarming agar medium (1% tryptone, 0.5% NaCl, and 0.5% agar) was prepared in the presence or absence of peptide at a final concentration of 1/4 × MIC. MRPA0108 cells from an overnight culture grown on LB agar plates were placed directly on the agar surface (center) with a sterile toothpick so that the motility within the semisolid agar could be evaluated. After 24 h of incubation at 37°C, the diameters of swarming motility were observed and measured. LB liquid medium and erythromycin were used as negative control and positive controls, respectively. All experiments were repeated three times.

CC[C@H]1OC(=O)[C@H](C)[C@@H](O[C@H]2C[C@@](C)(OC)[C@@H](O)[C@H](C)O2)[C@H](C)[C@@H](O[C@@H]2O[C@H](C)C[C@H](N(C)C)[C@H]2O)[C@](C)(O)C[C@@H](C)C(=O)[C@H](C)[C@@H](O)[C@]1(C)O [erythromycin, reference compound]
percentage of dead/live cells in biofilm (MRPA0108 biofilms): 68.9%
reduction in swarming motility [1]: 85%

Source: PMC7906020, “Trp-Containing Antibacterial Peptides Impair Quorum Sensing and Biofilm Development in Multidrug-Resistant Pseudomonas aeruginosa and Exhibit Synergistic Effects With Antibiotics” (Frontiers in Microbiology, 2021)
